Results as given in patent US20230264191A1, “SYSTEMS AND METHODS FOR FABRICATING PHYSIOLOGICALLY RELEVANT IN VITRO VESSELS” (The Texas A&M University System, priority 2022, published 2023).

Test system: lymphatic endothelial cells (LEC monoculture / LEC-LMC coculture in lymphangion-chip)
Test: Lymphatic endothelial barrier function (permeability) of the lymphangion-chip after exposure to TNF-α
Format: cell-based
Conditions: LMCs cocultured with LECs (graph 400, FIG. 22)

Substance: Tumor Necrosis Factor Alpha (TNF-α)
- lymphatic endothelial barrier function: relatively conserved
